# Earlier results as cited in US11033509B2 (BIOGEN MA INC., priority 2016, dated 2021).
# Counter-ions that a name gives are not always drawn.
# Conditions: DMF absorbed in vivo and converted to MMF
smiles,measurement,value
"COC(=O)/C=C/C(=O)O [MMF, monomethyl fumarate]",half-life of MMF,approximately 1 hour
